Laboratory results published in patent US9750744.
Where “and” joins values, the source holds several entries; their conditions need not be identical. Equal values may be shown once. Read-outs that look alike come from different tables or passages of the source.

Legend:
[1] = not given; remark: listed apart in the source

Compound `Fc1ccc2c(c1)[C@H]1CCCN1c1ccn3ncc(c3n1)CNCCO2` has a ring closure, isolated yield (from NCCOc1ccc(F)cc1[C@H]1CCCN1c1ccn2ncc(C=O)c2n1, amine bond, 13-membered ring, Me4NBH(OAc)3, DCM, 8.4 mM, 25.0 °C, 16.0 h) of 21.6%.
For `COC(=O)c1cnn2ccc(N3CCC[C@@H]3c3cc(F)cnc3CCC(C)(C)NC(=O)OC(C)(C)C)nc12`, the ring closure, isolated yield (the molecule shown is the open-chain precursor, amide bond, 13-membered ring, EDCI/HOBt/TEA, DMF, 39.4 mM, 45.0 °C, 3 steps) was 48.3%.
In the case of `O=C1Nc2ncccc2COc2ncc(F)cc2[C@H]2CCCN2c2ccn3ncc1c3n2`, the ring closure, isolated yield (from O=C(Nc1ncccc1CCl)c1cnn2ccc(N3CCC[C@@H]3c3cc(F)cnc3O)nc12, ether bond, 14-membered ring, Cs2CO3, DMF, 84.8 mM, 60.0 °C, 4.0 h, with chain assembly) is reported as 2.2%.
Work on `O=C1NCCCc2ncc(F)cc2[C@H]2CCCN2c2ccn3ncc1c3n2` yielded a ring closure, isolated yield (from NCCCc1ncc(F)cc1[C@H]1CCCN1c1ccn2ncc(C(=O)O)c2n1, amide bond, 13-membered ring, HATU/DIEA, DMF, 8.4 mM, 3.0 h) of 39%.
`O=C1NCCCn2cc(F)cc(c2=O)[C@H]2CCCN2c2ccn3ncc1c3n2` gave a ring closure, yield of all isomers ([1]; from NCCCn1cc(F)cc([C@H]2CCCN2c2ccn3ncc(C(=O)O)c3n2)c1=O, amide bond, EDCI/HOBt, DCM, 26.4 mM, 25.0 °C, 6.0 h) of 39%.
Compound `O=C1NCCCCn2cc(F)cc(c2=O)[C@H]2CCCN2c2ccn3ncc1c3n2` has a ring closure, isolated yield (other bond, 15-membered ring) of 6%.
Compound `NCCCOc1ccc(F)cc1[C@H]1CCCN1c1ccn2ncc(CO)c2n1` has a ring closure, isolated yield (the molecule shown is the open-chain precursor, amine bond, 14-membered ring, PS-PPh3/CCl4, DCM, 26.0 mM, 25.0 °C) of 57.5%.
Work on `O=C1NCCCOc2ncc(F)cc2[C@H]2CCCN2c2ccn3ncc1c3n2` yielded a ring closure, isolated yield (from O=C(NCCCCl)c1cnn2ccc(N3CCC[C@@H]3c3cc(F)cnc3O)nc12, ether bond, 14-membered ring, Cs2CO3, DMF, […], 85.0 °C, 16.0 h) of 44%.
With `O=C1NC[C@H](O)COc2ccc(F)cc2[C@H]2C[C@@H](O)CN2c2ccn3ncc1c3n2` the ring closure, isolated yield (from O=C(NC[C@H](O)CCl)c1cnn2ccc(N3CC(O)C[C@@H]3c3cc(F)ccc3O)nc12, ether bond, 14-membered ring, Cs2CO3, DMF, 21.6 mM, 85.0 °C, 0.5 h) was 16.2%.
Work on `O=C1NCCCOc2ccc(F)cc2[C@H]2CCCN2c2ccn3ncc1c3n2` yielded a ring closure, isolated yield (from CCOC(=O)c1cnn2ccc(N3CCC[C@@H]3c3cc(F)ccc3OCCCN)nc12, amide bond, 14-membered ring, DIEA, EtOH, 230.0 mM, 200.0 °C, 16.0 h) of 50%.
In the case of `O=C1OCCOc2ncc(F)cc2[C@H]2CCCN2c2ccn3ncc1c3n2`, the ring closure, yield of all isomers ([1]; from O=C(OCCCl)c1cnn2ccc(N3CCC[C@@H]3c3cc(F)c[nH]c3=O)nc12, ether bond, Cs2CO3, DMF, 22.2 mM, 90.0 °C, 16.0 h) is reported as 22%.
For `O=C1NC[C@H](O)COc2ccc(F)cc2C2CC(F)(F)CN2c2ccn3ncc1c3n2` (stereo partly shown), the ring closure, isolated yield (from O=C(NC[C@H](O)CCl)c1cnn2ccc(N3CC(F)(F)CC3c3cc(F)ccc3O)nc12, ether bond, 14-membered ring, Cs2CO3, DMF, 20.0 mM, 85.0 °C, 0.5 h) was 20% and 24%.
With `O=C1NC[C@H](O)Cn2cc(F)cc(c2=O)[C@H]2CCCN2c2ccn3ncc1c3n2` the ring closure, yield of all isomers ([1]; from O=C(NC[C@H](O)CCl)c1cnn2ccc(N3CCC[C@@H]3c3cc(F)c[nH]c3=O)nc12, amine bond, Cs2CO3, DMF, […], 85.0 °C, 2.0 h) was 12%.
